Article PMC10584003 (The Journal of Clinical Endocrinology and Metabolism, 2023)
Entries after “also recorded” stand apart in the source; their conditions may differ.

Assays:
[1] = tested on: 26 WT-like GLP-1R variants; experiment: cAMP measurement; type: cell-based, human; details: COS-7 cells
[2] = tested on: 26 WT-like GLP-1R variants; experiment: β-arrestin 2 recruitment; type: cell-based, human; details: HEK293 cells, BRET with GRK6, 26 WT-like variants
[3] = tested on: GLP-1R variants S79L, R421W, and A449V; experiment: β-arrestin 2 recruitment; type: cell-based, human; details: HEK293 cells, BRET with GRK6, LoS variants S79L
[4] = tested on: GLP-1R variants E34*, W87R, H99Qfs*83, S155F, F169Sfs*13, R310W, and T353M; experiment: β-arrestin 2 recruitment; type: cell-based, human; details: HEK293 cells, BRET with GRK6, LoS variants E34*
[5] = tested on: GLP-1R variants E34*, H99Qfs*83, S155F, F169Sfs*13, and T353M; experiment: Homologous competition binding, 5 LoS variants without binding; design: species or system human; details: COS-7 cells, 125I-GLP-1(7-36)NH2, LoS variants E34*, F169Sfs*13, T353M
[6] = tested on: GLP-1R variants S79L, W87R, R310W, R421W, and A449V; experiment: Homologous competition binding, 5 LoS variants with maintained binding; design: species or system human; details: COS-7 cells
[7] = tested on: GLP-1R F321S and F66L; experiment: cAMP signaling, variants F66L and F321S; type: cell-based, human; details: COS-7 cells, predicted pLoF
[8] = tested on: GLP-1R P7L, R131Q, G168S, and A316T; experiment: GLP-1R signaling, variants P7L, R131Q, G168S, A316T; type: cell-based, human; details: present study, COS-7 and HEK-293 cells
[9] = tested on: GLP-1R A316T; details: A316T variant; agonist not given; ref [49]; cited from earlier work
[10] = tested on: GLP-1R R421C; details: naturally occurring variant R421C; agonist not given; ref [42]; cited from earlier work
[11] = tested on: GLP-1R, alanine at position 87; details: ref [44]; cited from earlier work
[12] = tested on: GLP-1R, alanine at position 87; details: ref [44]; cited from earlier work; remark: listed apart in the source
[13] = tested on: GLP-1R R310W; details: top of transmembrane helix 5, agonist not given, ref [45]; cited from earlier work
[14] = tested on: GLP-1R, alanine at position 155; details: ref [46]; cited from earlier work
[15] = tested on: GLP-1R, alanine at position 155; details: ref [46]; cited from earlier work; remark: listed apart in the source
[16] = tested on: GLP-1R, alanine at position 353; details: alanine mutation at position 353; ref [46]; cited from earlier work
[17] = tested on: GLP-1R A316T; details: A316T variant; agonist not given; ref [49]; cited from earlier work; remark: listed apart in the source

GLP-1 binding, result in words [6]: maintained GLP-1 binding
Substance: glucagon-like peptide 1 [GLP-1]
change in cAMP potency vs WT (WT-like criterion) ([1]; 26 WT-like variants, EC50 change vs WT): < 5 fold | cAMP Emax (WT-like criterion) ([1]; 26 WT-like variants, Emax of at least 50% of the WT Emax): at least 50 % of the WT Emax | cAMP production, result in words ([1]; 26 variants, compared to WT): cAMP production similar to WT GLP-1R | β-arrestin 2 recruitment, result in words [2]: WT-like β-arrestin 2 recruitment | β-arrestin 2 recruitment average Emax ([2]; average, ± 6.6% (SEM)): 90.2 % of WT | β-arrestin 2 recruitment, result in words [3]: maintained β-arrestin 2 recruitment | β-arrestin 2 recruitment, result in words [4]: completely lost β-arrestin 2 recruitment | receptor binding, result in words [5]: complete loss of binding; also recorded: no GLP-1 binding | cAMP signaling, result in words [7]: normal cAMP signaling | GLP-1R signaling, result in words [8]: WT-like GLP-1R signaling | β-arrestin recruitment, A316T [9]: 18 % of WT | cAMP signaling, R421C, result in words [10]: no effect on cAMP signaling | GLP-1 binding, alanine at position 87, result in words [11]: no altered GLP-1 binding | cAMP signaling, alanine at position 87, result in words [12]: no altered GLP-1 binding or cAMP signaling | efficacy, R310W, result in words [13]: reduce efficacy | cAMP production, alanine at position 155, result in words [14]: affected cAMP production | GLP-1 affinity, alanine at position 155, result in words [15]: affected cAMP production and GLP-1 affinity | cAMP production, alanine at position 353, result in words [16]: altered cAMP production | signaling and binding, A316T, result in words [17]: WT-like signaling and binding properties
